This passage reports IC50, EC50 and AC50 results from ChEMBL document CHEMBL1201862, “PubChem BioAssay data set” (2004).

In data set [1] the target is T1, Kappa-type opioid receptor (Homo sapiens, UniProt P41145). The data set can be described thus: kappa opioid receptor blockers, cell-based, luminescence, beta-arrestin, SAR follow-up (AID 2285). Format: functional.
Data set [2] addresses T1, Kappa-type opioid receptor. In words: kappa opioid receptor activation potency – imaging, image-based, SAR follow-up (AID 2359). Format: functional.
Data set [3] addresses T2, Mu-type opioid receptor (Homo sapiens, UniProt P35372). In words: mu opioid receptor activators, image-based, SAR follow-up (AID 2352). Format: functional.
The target in data set [4] is T3, Delta-type opioid receptor (Homo sapiens, UniProt P41143). The data set can be described thus: DOR agonists, SAR follow-up, image-based (AID 2370). It is filed as functional.
The target in data set [5] is T1, Kappa-type opioid receptor. In words: kappa opioid receptor blockers, image-based, SAR follow-up (AID 2348). It is filed as functional.
Data set [6] concerns the target T3, Delta-type opioid receptor. In words: delta opioid receptor blockers – image-based, SAR follow-up (AID 2357). It is filed as functional.
Data set [7] deals with T2, Mu-type opioid receptor. In words: mu opioid receptor blockers – image-based, SAR follow-up (AID 2420).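 Also: compounds added before stimulation of receptor with agonist DAMGO.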 Format: functional.
The target in data set [8] is Dual specificity protein phosphatase 6 (Rattus norvegicus, UniProt Q64346). The data set can be described thus: inhibition of rat DUSP6 enzyme activity – biochemical, in vitro, primary screen (AID 425).
The target of data set [9] is T4, Induced myeloid leukemia cell differentiation protein Mcl-1 (Homo sapiens, UniProt Q07820). In words: blockers of MCL1 binding to BIM peptide – biochemical, fluorescence polarization, BIM-BH3 peptide, 1536-well, dose response (AID 2217). In general terms: Fluorescence polarisation rises when a labelled molecule tumbles more slowly, as on binding a larger partner.

For data set [10], the target named is T5, Dual specificity protein phosphatase 3 (Homo sapiens, UniProt P51452). The data set can be described thus: VHR1 phosphatase inhibitors, primary screen, biochemical, absorbance, uHTS (AID 1654).
For data set [11], the target named is T5, Dual specificity protein phosphatase 3. In words: VHR1 phosphatase inhibitors, biochemical (AID 1878).
The target in data set [12] is Eukaryotic translation initiation factor 4E (Mus musculus, UniProt P63073). In words: blockers of eIF4G binding by eIF4E – biochemical, TR-FRET, dose response (AID 855).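 Also: potency for disrupting eIF4E binding to eIF4GI seen as loss of FRET.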 It is filed as functional. Background: Time-resolved FRET reads energy transfer from a long-lived donor to a nearby acceptor.
In data set [13] the target is T4, Induced myeloid leukemia cell differentiation protein Mcl-1. It is filed as functional.
In data set [14] the target is T6, Voltage-gated N-type calcium channel alpha-1B subunit/Amyloid beta A4 precursor protein-binding family A member 1 (Homo sapiens, UniProt Q00975+Q02410). It is filed as protein assay.
The next data set concerns the target NS3 (Hepatitis C virus, UniProt A3EZJ3). In words: PubChem AID 2173. Set-up: species or system Hepacivirus hominis.
Another data set deals with Phospholipase A2 (Homo sapiens, UniProt P04054). Format: functional.
The target in the next data set is Bcl-2-like protein 1 (Homo sapiens, UniProt Q07817). The data set can be described thus: blockers of BCLXL peptide binding – biochemical, fluorescence polarization, 1536-well, selectivity assay for MCL1 inhibitor project, dose response (AID 2218).
Data set [15] is described as follows: antiviral protection against BTV-induced cell death – arbovirus, BSR cells, confirmation (AID 1250).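 Also: protection from viral cytopathic effect measured as cell viability by ATP luminescence.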 Format: functional.
Another data set concerns the target T7, Cysteine protease ATG4B (Homo sapiens, UniProt Q9Y4P1).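 Also: Fluorescence-based dose-response confirmation assay measuring inhibition of ATG4B activity.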
T7 sequence (Q9Y4P1 whole entry): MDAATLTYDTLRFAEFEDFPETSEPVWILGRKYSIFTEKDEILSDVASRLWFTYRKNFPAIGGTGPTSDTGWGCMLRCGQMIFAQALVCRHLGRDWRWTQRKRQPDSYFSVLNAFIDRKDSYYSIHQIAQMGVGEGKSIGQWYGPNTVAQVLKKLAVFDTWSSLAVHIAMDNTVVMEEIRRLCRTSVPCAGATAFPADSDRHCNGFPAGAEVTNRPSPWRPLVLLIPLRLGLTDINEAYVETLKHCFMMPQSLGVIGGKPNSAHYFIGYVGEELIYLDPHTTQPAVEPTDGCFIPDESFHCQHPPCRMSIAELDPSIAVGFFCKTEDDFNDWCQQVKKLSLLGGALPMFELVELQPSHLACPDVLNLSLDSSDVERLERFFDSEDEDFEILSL
It is filed as functional.

Data set [16] concerns the target T6, Voltage-gated N-type calcium channel alpha-1B subunit/Amyloid beta A4 precursor protein-binding family A member 1. It is filed as protein assay. The source holds these as a separate data set.
Data set [17] deals with T1, Kappa-type opioid receptor. The data set can be described thus: SAR analysis of small molecule agonists of the kappa opioid receptor via a luminescent beta-arrestin assay - Set 3. [Related pubchem assays (depositor defined):AID1777, AID1785, AID1786, AID1966, AID2133, AID2136, AID2284, AID2500]. Format: functional.
Another data set has as its target Cytochrome P450 2D6 (Homo sapiens, UniProt P10635).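 Also: CYP2D6 member of a cytochrome P450 panel assay.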
Another data set concerns the target T8, Cytochrome P450 1A2 (Homo sapiens, UniProt P05177).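 Also: PubChem cytochrome P450 panel assay, CYP1A2 panel member.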
T8 sequence (P05177 whole entry): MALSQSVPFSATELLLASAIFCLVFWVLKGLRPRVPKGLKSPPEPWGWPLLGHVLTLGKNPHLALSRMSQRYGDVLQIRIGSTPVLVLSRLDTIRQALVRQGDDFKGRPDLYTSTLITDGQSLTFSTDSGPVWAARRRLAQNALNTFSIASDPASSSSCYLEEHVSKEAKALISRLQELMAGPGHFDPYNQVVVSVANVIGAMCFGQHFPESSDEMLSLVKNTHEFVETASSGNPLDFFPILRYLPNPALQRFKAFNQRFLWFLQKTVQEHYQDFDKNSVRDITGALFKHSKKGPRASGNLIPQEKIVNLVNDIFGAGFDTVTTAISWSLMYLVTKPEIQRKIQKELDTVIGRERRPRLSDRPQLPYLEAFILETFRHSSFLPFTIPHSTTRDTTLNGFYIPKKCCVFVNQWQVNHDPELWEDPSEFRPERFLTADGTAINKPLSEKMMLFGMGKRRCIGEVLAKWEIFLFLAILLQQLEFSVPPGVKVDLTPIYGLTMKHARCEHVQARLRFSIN

For data set [18], the target named is T9, Heat shock factor protein 1 (Mus musculus, UniProt P38532).
T9 sequence (P38532 whole entry): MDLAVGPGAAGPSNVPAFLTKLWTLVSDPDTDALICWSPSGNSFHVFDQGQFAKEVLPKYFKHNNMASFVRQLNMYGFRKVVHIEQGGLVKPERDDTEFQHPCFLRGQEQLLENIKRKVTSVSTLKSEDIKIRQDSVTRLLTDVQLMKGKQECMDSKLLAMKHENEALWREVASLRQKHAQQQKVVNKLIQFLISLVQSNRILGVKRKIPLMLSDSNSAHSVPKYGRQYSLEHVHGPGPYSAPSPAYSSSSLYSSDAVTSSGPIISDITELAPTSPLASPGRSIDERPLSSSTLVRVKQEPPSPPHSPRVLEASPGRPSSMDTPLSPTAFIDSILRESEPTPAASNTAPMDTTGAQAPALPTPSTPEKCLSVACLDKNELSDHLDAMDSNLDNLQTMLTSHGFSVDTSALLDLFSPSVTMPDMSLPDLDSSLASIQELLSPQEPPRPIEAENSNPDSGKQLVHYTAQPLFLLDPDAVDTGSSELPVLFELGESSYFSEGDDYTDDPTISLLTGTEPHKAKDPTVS
The data set can be described thus: decrease of HSF1-responsive luciferase luminescence – cell-based, NIH3T3, dose retest, confirmation (AID 2382).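 Also: NIH3T3 fibroblasts with HSF1-driven luciferase reporter stressed by proteasome inhibitor MG132; luminescence from HSF1-driven luciferase expression after 8 hours of MG132 stress.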 Format: functional.

Data set [19] has as its target T10, Cannabinoid receptor 2 (Homo sapiens, UniProt P34972). The data set can be described thus: SAR analysis of agonists of the Cannabinoid Receptor 2 using an Image-Based Assay - Set 3. [Related pubchem assays (depositor defined):AID2013, AID2026]. It is filed as functional.
Data set [20] has as its target G-protein coupled receptor 55 (Homo sapiens, UniProt Q9Y2T6). The data set can be described thus: SAR Analysis of Selective Antagonists of GPR55 using an Image-Based Assay - Set 4. [Related pubchem assays (depositor defined):AID2013, AID2026]. It is filed as functional.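 Also: antagonism of response to 5 µM lysophosphatidylinositol agonist.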
Data set [21] has as its target T11, Cannabinoid receptor 1 (Homo sapiens, UniProt P21554). The data set can be described thus: SAR analysis of agonists of the Cannabinoid Receptor 1 using an Image-Based Assay - Set 4. [Related pubchem assays (depositor defined):AID2013, AID2026]. Format: functional.
The target in data set [22] is T10, Cannabinoid receptor 2. The data set can be described thus: SAR analysis of antagonists of the Cannabinoid Receptor 2 using an Image-Based Assay - Set 3. [Related pubchem assays (depositor defined):AID2013, AID2026]. Format: functional.
The target in data set [23] is T12, G-protein coupled receptor 35 (Homo sapiens, UniProt Q9HC97). In words: SAR analysis of Antagonists of the GPR35 Receptor using an Image-Based Assay - Set 6. [Related pubchem assays (depositor defined):AID2013, AID2026]. It is filed as functional.
Data set [24] has as its target T11, Cannabinoid receptor 1. In words: SAR analysis of antagonists of the Cannabinoid Receptor 1 using an Image-Based Assay - Set 4. [Related pubchem assays (depositor defined):AID2013, AID2026]. Format: functional.
Data set [25] has as its target T12, G-protein coupled receptor 35. The data set can be described thus: SAR analysis of Agonists of the GPR35 Receptor using an Image-Based Assay - Set 4. [Related pubchem assays (depositor defined):AID2013, AID2026]. Format: functional.
The next data set has as its target Trypsin (Sus scrofa, UniProt P00761). The data set can be described thus: trypsin protease activity blockade – biochemical, quenched peptide fluorescence, cherry-pick, selectivity assay for Rce1 protease inhibitor project, dose response (AID 488789).
The next data set concerns the target CAAX prenyl protease 1 (Saccharomyces cerevisiae S288c, UniProt P47154). The data set can be described thus: yeast CAAX protease Ste24 inhibition – biochemical, S. cerevisiae, plate reader, cherry-pick, dose response (AID 488815).

Values joined by “and” are separate entries in the source; they are usually repeats but may differ in a detail not shown here. Equal values may be shown once. Active and inactive are the calls of the source.

T1 sequence (P41145 whole entry): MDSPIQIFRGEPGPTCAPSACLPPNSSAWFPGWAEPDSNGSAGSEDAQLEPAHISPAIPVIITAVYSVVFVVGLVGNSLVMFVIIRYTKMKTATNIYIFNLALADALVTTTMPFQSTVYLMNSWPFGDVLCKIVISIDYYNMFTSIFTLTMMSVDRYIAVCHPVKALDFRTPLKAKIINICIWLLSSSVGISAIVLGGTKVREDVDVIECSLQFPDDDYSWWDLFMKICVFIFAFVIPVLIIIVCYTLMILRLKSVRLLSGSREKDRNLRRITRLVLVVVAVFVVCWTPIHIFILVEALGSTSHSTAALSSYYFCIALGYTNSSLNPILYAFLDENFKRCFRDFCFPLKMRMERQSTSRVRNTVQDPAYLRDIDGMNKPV
T4 sequence (Q07820 whole entry): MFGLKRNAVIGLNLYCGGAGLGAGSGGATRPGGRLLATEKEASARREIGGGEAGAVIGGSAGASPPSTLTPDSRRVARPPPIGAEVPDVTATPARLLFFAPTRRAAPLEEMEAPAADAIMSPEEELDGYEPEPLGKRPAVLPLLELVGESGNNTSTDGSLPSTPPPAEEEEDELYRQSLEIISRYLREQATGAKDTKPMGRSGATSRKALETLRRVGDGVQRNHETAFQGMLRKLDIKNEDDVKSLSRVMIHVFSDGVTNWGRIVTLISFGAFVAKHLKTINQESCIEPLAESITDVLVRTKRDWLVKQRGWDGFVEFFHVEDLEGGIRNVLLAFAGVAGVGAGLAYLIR
T6 sequence (Q00975 whole entry): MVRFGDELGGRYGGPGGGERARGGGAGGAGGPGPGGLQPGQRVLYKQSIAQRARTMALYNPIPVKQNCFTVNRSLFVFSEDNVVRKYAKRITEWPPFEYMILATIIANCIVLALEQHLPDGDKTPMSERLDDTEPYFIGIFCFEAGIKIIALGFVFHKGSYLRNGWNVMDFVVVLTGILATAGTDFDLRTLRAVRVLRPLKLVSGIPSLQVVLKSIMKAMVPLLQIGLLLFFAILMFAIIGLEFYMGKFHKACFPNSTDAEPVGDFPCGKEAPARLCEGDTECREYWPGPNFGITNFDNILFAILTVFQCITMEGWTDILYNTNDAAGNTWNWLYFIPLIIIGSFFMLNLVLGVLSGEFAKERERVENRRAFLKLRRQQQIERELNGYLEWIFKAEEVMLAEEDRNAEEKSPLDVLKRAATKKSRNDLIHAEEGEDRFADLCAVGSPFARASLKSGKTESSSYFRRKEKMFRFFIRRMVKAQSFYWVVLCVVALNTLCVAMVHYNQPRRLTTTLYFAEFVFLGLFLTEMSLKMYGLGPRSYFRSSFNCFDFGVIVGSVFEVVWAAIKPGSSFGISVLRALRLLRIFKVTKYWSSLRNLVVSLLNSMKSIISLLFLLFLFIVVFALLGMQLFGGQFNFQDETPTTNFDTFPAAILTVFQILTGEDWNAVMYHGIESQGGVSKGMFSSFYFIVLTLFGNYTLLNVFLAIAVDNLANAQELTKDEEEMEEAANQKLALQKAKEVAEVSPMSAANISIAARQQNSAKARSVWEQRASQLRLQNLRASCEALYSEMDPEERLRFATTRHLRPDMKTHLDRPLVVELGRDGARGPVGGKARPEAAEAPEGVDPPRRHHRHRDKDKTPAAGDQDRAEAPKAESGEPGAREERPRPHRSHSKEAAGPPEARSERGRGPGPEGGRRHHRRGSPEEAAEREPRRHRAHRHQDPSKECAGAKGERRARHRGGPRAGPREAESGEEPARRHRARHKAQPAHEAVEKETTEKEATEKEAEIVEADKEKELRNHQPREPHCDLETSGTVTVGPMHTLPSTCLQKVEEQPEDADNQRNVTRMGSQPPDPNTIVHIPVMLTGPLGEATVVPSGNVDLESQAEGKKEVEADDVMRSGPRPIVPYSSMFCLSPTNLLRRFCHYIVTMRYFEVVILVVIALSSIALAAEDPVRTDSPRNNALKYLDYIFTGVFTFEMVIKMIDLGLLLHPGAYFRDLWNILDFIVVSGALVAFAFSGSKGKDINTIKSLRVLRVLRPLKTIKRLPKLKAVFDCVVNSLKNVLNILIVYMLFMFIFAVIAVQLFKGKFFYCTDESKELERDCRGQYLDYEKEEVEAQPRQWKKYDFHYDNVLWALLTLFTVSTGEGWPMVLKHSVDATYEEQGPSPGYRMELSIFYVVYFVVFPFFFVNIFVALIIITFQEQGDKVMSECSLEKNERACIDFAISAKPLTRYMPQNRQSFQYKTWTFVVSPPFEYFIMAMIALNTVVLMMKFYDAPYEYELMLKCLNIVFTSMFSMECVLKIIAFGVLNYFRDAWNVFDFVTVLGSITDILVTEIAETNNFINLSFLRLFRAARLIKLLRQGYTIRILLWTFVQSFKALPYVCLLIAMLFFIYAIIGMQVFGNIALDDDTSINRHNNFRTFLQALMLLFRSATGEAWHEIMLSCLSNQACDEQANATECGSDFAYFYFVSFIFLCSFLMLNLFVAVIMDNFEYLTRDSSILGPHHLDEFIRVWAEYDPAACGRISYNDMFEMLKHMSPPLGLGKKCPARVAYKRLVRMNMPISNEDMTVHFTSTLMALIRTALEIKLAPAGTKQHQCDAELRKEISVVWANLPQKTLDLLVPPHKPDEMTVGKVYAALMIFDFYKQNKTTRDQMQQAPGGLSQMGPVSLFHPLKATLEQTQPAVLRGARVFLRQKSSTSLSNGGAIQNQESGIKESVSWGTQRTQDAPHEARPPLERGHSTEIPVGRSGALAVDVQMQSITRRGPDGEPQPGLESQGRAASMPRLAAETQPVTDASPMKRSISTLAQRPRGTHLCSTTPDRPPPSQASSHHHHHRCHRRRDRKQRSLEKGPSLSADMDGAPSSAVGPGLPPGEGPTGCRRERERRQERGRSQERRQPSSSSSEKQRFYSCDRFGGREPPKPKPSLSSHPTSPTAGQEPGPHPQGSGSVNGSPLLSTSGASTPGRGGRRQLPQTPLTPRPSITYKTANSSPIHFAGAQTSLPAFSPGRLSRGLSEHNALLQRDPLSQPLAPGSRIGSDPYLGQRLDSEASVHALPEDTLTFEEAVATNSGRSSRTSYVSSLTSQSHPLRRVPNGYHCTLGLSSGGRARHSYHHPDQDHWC
T6 sequence (Q02410 whole entry): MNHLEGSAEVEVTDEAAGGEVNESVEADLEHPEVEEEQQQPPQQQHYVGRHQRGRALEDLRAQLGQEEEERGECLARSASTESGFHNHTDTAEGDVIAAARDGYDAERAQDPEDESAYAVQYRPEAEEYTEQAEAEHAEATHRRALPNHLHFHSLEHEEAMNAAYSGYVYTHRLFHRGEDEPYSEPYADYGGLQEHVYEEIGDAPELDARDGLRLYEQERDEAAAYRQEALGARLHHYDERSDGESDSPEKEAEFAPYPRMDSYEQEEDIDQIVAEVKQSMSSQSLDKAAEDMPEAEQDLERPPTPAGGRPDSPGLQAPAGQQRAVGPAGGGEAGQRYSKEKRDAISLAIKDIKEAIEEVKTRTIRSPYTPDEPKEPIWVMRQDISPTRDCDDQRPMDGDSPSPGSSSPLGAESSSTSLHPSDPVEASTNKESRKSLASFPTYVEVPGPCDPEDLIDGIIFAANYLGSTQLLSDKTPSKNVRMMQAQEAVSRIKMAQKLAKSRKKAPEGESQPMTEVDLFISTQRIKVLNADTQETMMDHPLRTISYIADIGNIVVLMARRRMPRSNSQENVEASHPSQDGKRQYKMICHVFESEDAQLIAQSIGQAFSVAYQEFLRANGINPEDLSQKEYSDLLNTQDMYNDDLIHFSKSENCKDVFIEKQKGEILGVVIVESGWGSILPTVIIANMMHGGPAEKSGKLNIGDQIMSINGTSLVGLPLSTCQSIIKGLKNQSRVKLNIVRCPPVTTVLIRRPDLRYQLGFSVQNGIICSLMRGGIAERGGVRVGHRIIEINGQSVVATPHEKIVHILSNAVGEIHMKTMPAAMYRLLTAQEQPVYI
T10 sequence (P34972 whole entry): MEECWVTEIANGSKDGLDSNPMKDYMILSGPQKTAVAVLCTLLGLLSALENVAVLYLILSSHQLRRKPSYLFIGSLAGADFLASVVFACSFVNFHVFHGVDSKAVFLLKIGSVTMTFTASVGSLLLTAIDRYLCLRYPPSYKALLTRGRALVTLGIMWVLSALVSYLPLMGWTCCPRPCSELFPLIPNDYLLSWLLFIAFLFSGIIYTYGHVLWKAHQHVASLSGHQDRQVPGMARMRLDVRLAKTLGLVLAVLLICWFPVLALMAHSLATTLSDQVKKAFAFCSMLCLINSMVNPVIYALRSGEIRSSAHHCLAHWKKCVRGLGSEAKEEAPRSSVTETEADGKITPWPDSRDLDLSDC
T5 sequence (P51452 whole entry): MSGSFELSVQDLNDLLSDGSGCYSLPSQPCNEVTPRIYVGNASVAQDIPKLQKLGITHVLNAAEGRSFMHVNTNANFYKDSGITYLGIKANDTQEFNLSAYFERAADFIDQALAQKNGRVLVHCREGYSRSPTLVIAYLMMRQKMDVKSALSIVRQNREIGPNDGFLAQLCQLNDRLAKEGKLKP
Cytochrome P450 2D6, sequence (P10635 whole entry): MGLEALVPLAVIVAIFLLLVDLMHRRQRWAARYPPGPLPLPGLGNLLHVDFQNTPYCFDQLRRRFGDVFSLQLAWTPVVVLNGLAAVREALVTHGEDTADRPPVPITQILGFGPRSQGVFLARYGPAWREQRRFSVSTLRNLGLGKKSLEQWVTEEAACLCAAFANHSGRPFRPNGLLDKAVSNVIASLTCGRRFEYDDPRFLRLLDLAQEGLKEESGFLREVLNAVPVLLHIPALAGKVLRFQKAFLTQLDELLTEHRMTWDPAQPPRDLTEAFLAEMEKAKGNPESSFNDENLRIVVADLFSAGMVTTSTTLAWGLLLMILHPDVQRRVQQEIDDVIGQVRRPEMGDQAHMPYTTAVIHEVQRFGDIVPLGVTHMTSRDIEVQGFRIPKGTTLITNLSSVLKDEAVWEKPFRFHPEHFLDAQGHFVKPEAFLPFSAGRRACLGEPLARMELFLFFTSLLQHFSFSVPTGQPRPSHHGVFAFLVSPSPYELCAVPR

`Oc1ccc(C=NNc2ccnc3cc(Cl)ccc23)cc1O`: the IC50 is > 10 µM (inactive) in data set [1], 24.8 µM (inactive) in data set [5], 18.9 µM (inactive) in data set [6] and > 32 µM (inactive) on Mu-type opioid receptor [7]. The EC50 (in data set [2]; at Mu-type opioid receptor [3]; in [4]) was > 32 µM (inactive) in each case.
For the molecule `COc1ccc(-n2cccc2/C=C2\C(=N)N3N=C(c4ccco4)SC3=NC2=O)cc1`, the IC50 in data set [8] is 9.04 µM (active); in [9], 4.93 µM (active); in data set [10], 6.65 µM (active); in data set [11] it was 2.27 µM (active); in data set [12], 50 µM (inactive); in data set [13], 19.3 µM (active). The 50% inhibitory concentration (IC50) in data set [14] was 14.1 µM (active); at NS3 it was 7.79 µM (active); on Phospholipase A2, 1.09 µM (active); at Bcl-2-like protein 1, > 109 µM (not active); in data set [15], 33.2 µM (active); on Cysteine protease ATG4B, 2.73 µM (active). The IC50 in data set [16] was > 50 µM (inactive).
Regarding `CCCCN(Cc1cc2cc(Cl)ccc2[nH]c1=O)C(=O)c1ccccn1`, the half-maximal effective concentration (EC50) in data set [17] was 1.87 µM (active).
On to `Cc1ccc(N(CC2=NCCN2)c2cccc(O)c2)cc1` [PHENTOLAMINE], for which the AC50 on Cytochrome P450 2D6 is 794 nM (active) and 1.12 µM (active); on Cytochrome P450 1A2 it was “inactive”. In addition, in data set [18], the EC50 was > 195 µM (not active).
In the case of `Cc1nnc(-c2cccc3ccccc23)c2cn(-c3cccc(Br)c3)nc12`, the EC50 (on Cannabinoid receptor 2 [19]; on Cannabinoid receptor 1 [21]; in data set [25]) was > 32 µM (inactive) in each case. Moreover, the IC50 in data set [20] was 5.27 µM (active); at Cannabinoid receptor 2 [22], 3.87 µM (active); in [23], 28.2 µM (inactive); at Cannabinoid receptor 1 [24], 0.661 µM (active).
Turning to `CCCCNC(=O)C(CC)Sc1nc2sc(C(=O)OC)c(C)c2c(=O)n1N` (stereo not drawn), the figures for the AC50 at Trypsin and at CAAX prenyl protease 1 were 0.985 µM (active) and 8.14 µM (active), respectively.

A word on the IC50: it is the point on the concentration scale where inhibition reaches its midpoint. As usually defined, the EC50 is the concentration that produces a half-maximal response. Usually AC50 stands for the midpoint of the concentration-response curve, whichever way the signal moves.
